These results are taken from US20170159101A1, “DRUG-RESISTANT P97 ATPASE MUTATIONS” (Cleave Biosciences, Inc., priority 2014, published 2017).

What all share (test): Biochemical ATPase assay, mutant p97 vs WT
Assay [1] has as its target T1, p97 A659T (Homo sapiens, UniProt P55072, A659T).
T1 construct: His-tag; made in house; host or cells: E. coli B121[DE3]; (so in the source)
Particulars: recombinant p97 with A659T mutation. The method, then: (§1) Proteins were expressed in the B121[DE3] strain of E. coli and purified using His-tag mediated nickel purification and gel filtration chromatography.
(§2) ATPase activity of p97 was measured using an ATP regenerating enzymatic system that couples the conversion of phosphoenolpyruvate (PEP) to pyruvate by pyruvate kinase with ADP conversion to ATP. Pyruvate is then converted to lactate by lactate dehydrogenase, which is coupled to the conversion of NADH to NAD^+. The loss of NADH is measured by a decrease in optical absorbance as […] allowing for real-time measurement of ATPase activity. Dose titrations of a test compound were added to the p97 ATPase assay and ATPase activity was monitored. The rate of ATPase activity was fit to four-parameter sigmoidal curve to calculate IC50 of test compound. IC50 values of test compounds for wild type p97 were compared to IC50 values of mutant proteins to identify fold-changes in the potency of test compounds for mutant p97.

For assay [2], the target named is T2, p97 D649A (Homo sapiens, UniProt P55072, D649A).
T2 construct: His-tag; made in house; host or cells: E. coli B121[DE3]; (so in the source)
The following applies: recombinant p97 with D649A mutation. The method, then:
as §1, §2

Assay [3] has as its target T3, p97 E470D (Homo sapiens, UniProt P55072, E470D).
T3 construct: His-tag; made in house; host or cells: E. coli B121[DE3]; (so in the source)
Particulars: recombinant p97 with E470D mutation. The method, then: as §1, §2

Assay [4] addresses T4, p97 G481A (Homo sapiens, UniProt P55072, G481A).
T4 construct: His-tag; made in house; host or cells: E. coli B121[DE3]; (so in the source)
The following applies: recombinant p97 with G481A mutation. The method, then:
as §1, §2

Assay [5] has as its target T5, p97 Q473P (Homo sapiens, UniProt P55072, Q473P).
T5 construct: His-tag; made in house; host or cells: E. coli B121[DE3]; (so in the source)
The following applies: recombinant p97 with Q473P mutation. The method, then:
as §1, §2

Assay [6] addresses T6, p97 T688A (Homo sapiens, UniProt P55072, T688A).
T6 construct: His-tag; made in house; host or cells: E. coli B121[DE3]; (so in the source)
Particulars: recombinant p97 with T688A mutation. The method, then: as §1, §2

T2 sequence (P55072 whole entry D649A): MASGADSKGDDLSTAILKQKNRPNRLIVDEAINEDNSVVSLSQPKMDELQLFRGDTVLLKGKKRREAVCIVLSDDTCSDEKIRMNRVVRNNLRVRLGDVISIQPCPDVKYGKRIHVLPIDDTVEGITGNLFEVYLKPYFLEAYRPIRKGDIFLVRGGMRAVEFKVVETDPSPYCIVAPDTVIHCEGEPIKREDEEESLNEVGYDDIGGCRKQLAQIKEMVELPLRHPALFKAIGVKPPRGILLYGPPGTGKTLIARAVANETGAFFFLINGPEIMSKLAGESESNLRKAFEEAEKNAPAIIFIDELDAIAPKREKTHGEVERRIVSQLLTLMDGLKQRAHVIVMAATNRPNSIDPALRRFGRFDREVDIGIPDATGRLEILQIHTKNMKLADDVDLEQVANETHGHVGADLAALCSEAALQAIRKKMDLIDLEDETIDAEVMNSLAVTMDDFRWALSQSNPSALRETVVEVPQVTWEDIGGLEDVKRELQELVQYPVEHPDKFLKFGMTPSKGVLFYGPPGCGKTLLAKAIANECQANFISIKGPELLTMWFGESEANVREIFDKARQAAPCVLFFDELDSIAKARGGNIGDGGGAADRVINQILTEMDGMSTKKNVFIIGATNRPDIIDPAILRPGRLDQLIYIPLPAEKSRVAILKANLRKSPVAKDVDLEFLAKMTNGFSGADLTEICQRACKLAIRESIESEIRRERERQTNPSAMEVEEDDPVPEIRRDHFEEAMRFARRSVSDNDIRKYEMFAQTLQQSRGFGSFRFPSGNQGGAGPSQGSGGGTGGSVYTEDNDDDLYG
T5 sequence (P55072 whole entry Q473P): as the sequence (P55072 whole entry D649A) above, with Q473P, A649D counted along it
T6 sequence (P55072 whole entry T688A): as the sequence (P55072 whole entry D649A) above, with A649D, T688A counted along it
T1 sequence (P55072 whole entry A659T): as the sequence (P55072 whole entry D649A) above, with A649D, A659T counted along it
T3 sequence (P55072 whole entry E470D): as the sequence (P55072 whole entry D649A) above, with E470D, A649D counted along it
T4 sequence (P55072 whole entry G481A): as the sequence (P55072 whole entry D649A) above, with G481A, A649D counted along it

For the molecule `COc1nc2c(C(N)=O)cccc2n1-c1nc2c(c(NCc3ccccc3)n1)CCCC2` [Compound 5, 1-[4-(benzylamino)-5,6,7,8-tetrahydroquinazolin-2-yl]-2-methoxy-1H-1,3-benzodiazole-4-carboxamide], the “Fold Change in IC50 compared to WT Protein” value in assay [1] stood at 110.0 fold; in assay [2], 67.0 fold; in assay [3] it was 15.4 fold; in assay [4], 4.1 fold; in assay [5] it was 0.3 fold; in assay [6], 363.0 fold.
